Read-outs that look alike come from different tables or passages of the source. Where only a bound is given, the exact number is not on record here.

For assay [1], the target named is T1, recombinant human ALK5 (TGF-βR1) protein (Homo sapiens, UniProt P36897).
T1 construct: purchased Life Technologies PR9075A
T1 sequence (P36897 34-503): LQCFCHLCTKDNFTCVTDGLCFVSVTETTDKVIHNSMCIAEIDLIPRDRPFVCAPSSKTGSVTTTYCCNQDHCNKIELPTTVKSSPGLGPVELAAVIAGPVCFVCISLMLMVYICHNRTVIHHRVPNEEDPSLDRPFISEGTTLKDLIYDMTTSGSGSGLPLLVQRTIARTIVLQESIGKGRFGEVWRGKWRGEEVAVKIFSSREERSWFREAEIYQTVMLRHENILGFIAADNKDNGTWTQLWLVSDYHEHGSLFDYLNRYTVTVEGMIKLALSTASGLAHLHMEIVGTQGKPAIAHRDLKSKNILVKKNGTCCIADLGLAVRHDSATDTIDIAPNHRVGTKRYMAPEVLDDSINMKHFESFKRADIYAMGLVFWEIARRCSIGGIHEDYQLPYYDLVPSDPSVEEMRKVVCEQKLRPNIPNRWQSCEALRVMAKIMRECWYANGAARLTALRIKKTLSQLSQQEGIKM
Put plainly: Biochemical ALK5 (TGF-βR1) assay to measure pKi (LANCE Ultra ULight kinase assay). Particulars: apparent pKi from pIC50 by Cheng-Prusoff. The procedure, abridged: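 Compounds (10 μM to 25 pM) preincubated 60 minutes at room temperature with enzyme, then reaction run 60 minutes at 37° C with ATP added as 125 μM (5× final). Stopped with EDTA plus Eu-anti-phospho-Topoisomerase 2-alpha (Thr1342) antibody, TR-FRET read at 665 nm; pIC50 converted to pKi via Cheng-Prusoff.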
A general note: TR-FRET usually uses a lanthanide donor and a delayed reading to cut background.

Assay [2] concerns TGF-β-stimulated SMAD3 phosphorylation in BEAS-2B cells. Put plainly: Cellular ALK5 potency assay, inhibition of TGF-β stimulated pSMAD3 formation in BEAS-2B cells. Particulars: Homo sapiens, read-out: BEAS2B pIC50 (converted). Format: cell-based. The procedure, abridged: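 pSMAD3 was quantified by AlphaLISA in BEAS-2B lysates after 10 ng/mL TGF-β (final) for 30 min. Before stimulation, cells received compound for 1 h at 37° C in supplemented HBSS. Values are pIC50, relative to TGF-β-stimulated cells without compound.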

Where [3] appears, read: inhibition of TGF-β stimulated pSMAD3 formation, BEAS-2B cells.

Consider `Cc1cccc(-c2n[nH]cc2-c2ccc3ncc(-c4cn5c(n4)CN(CCO)CC5)cc3n2)n1` [Compound 198, 2-[2-[6-[3-(6-methyl-2-pyridyl)-1H-pyrazol-4-yl]-1,5-naphthyridin-3-yl]-6,8-dihydro-5H-imidazo[1,2-a]pyrazin-7-yl]ethanol], for which, in assay [1] (read-out: ALK5 pKi (converted)), the Ki was 0.0398 to 0.316 nM. For the same compound, in assay [2] (setting [3]), the IC50 was 25.1 to 158 nM.

For `Cc1cccc(-c2n[nH]cc2-c2ccc3nccc(CN4CC(N5CCOCC5)C4)c3n2)n1` [Compound 850, 4-[1-[[6-[3-(6-methyl-2-pyridyl)-1H-pyrazol-4-yl]-1,5-naphthyridin-4-yl]methyl]azetidin-3-yl]morpholine], the Ki in assay [1] (read-out: ALK5 pKi (converted)) was 0.398 to 3.16 nM. Moreover, the IC50 in assay [2] (setting [3]) was 200 to 1260 nM.

On to `Cc1cccc(-c2n[nH]cc2-c2ccc3ncc(N4CCC(N(C)C)C4)cc3n2)n1` (racemic) [Compound 505, rac-(3S)-N,N-dimethyl-1-[6-[3-(6-methyl-2-pyridyl)-1H-pyrazol-4-yl]-1,5-naphthyridin-3-yl]pyrrolidin-3-amine], for which the Ki in assay [1] (read-out: ALK5 pKi (converted)) is under 0.0316 nM. Also, in assay [2] (setting [3]), the IC50 was 25.1 to 158 nM.

`Cc1cccc(-c2n[nH]cc2-c2ccc3nccc(N4CCNCC4)c3c2)n1` [Compound 868, 6-[3-(6-methyl-2-pyridyl)-1H-pyrazol-4-yl]-4-piperazin-1-yl-quinoline]: the Ki in assay [1] (read-out: ALK5 pKi (converted)) is 0.398 to 3.16 nM. In assay [2] (setting [3]), the IC50 was 25.1 to 158 nM.

Take `Cc1cccc(-c2[nH]ncc2-c2ccc3ncc(C(=O)O[C@H]4CC[C@@H](N)CC4)cc3c2)n1` [Compound 1228, (4-aminocyclohexyl) 6-[5-(6-methyl-2-pyridyl)-1H-pyrazol-4-yl]quinoline-3-carboxylate]: in assay [1] (read-out: ALK5 pKi (converted)), the Ki was 0.0398 to 0.316 nM. For the same compound, the IC50 in assay [2] (setting [3]) was 25.1 to 158 nM.

For the compound `Cc1cccc(-c2n[nH]cc2-c2ccc3ncc(-c4ncn5c4CNCC5)cc3n2)n1` [Compound 118, 2-[3-(6-methyl-2-pyridyl)-1H-pyrazol-4-yl]-7-(5,6,7,8-tetrahydroimidazo[1,5-a]pyrazin-1-yl)-1,5-naphthyridine], the Ki in assay [1] (read-out: ALK5 pKi (converted)) was 0.0398 to 0.316 nM. The IC50 in assay [2] (setting [3]) was 25.1 to 158 nM.

Regarding `Cc1cccc(-c2[nH]cnc2-c2ccc3ncc(-c4csc(C(=O)OCCN5CCC[C@H](N)C5)c4)cc3c2)n1` [Compound 1250, 2-[(3S)-3-amino-1-piperidyl]ethyl 4-[6-[5-(6-methyl-2-pyridyl)-1H-imidazol-4-yl]-3-quinolyl]thiophene-2-carboxylate], the Ki in assay [1] (read-out: ALK5 pKi (converted)) was 0.398 to 3.16 nM. For the same compound, the IC50 in assay [2] (setting [3]) is 25.1 to 158 nM.

Consider `Cc1cccc(-c2[nH]cnc2-c2ccc3ncc(NCCN4CCCC4(C)C)cc3n2)n1` [Compound 627, N-[2-(2,2-dimethylpyrrolidin-1-yl)ethyl]-6-[5-(6-methyl-2-pyridyl)-1H-imidazol-4-yl]-1,5-naphthyridin-3-amine], for which, in assay [1] (read-out: ALK5 pKi (converted)), the Ki was 0.0398 to 0.316 nM. The IC50 in assay [2] (setting [3]) is 25.1 to 158 nM.

As to `Cc1cccc(-c2[nH]cnc2-c2ccc3ncc(-c4ccc(C(=O)OCCNC5CNC5)cn4)cc3c2)n1` [Compound 1192, 2-(azetidin-3-ylamino)ethyl 6-[6-[5-(6-methyl-2-pyridyl)-1H-imidazol-4-yl]-3-quinolyl]pyridine-3-carboxylate], the Ki in assay [1] (read-out: ALK5 pKi (converted)) was 0.0398 to 0.316 nM. Further, in assay [2] (setting [3]), the IC50 was 200 to 1260 nM.

Regarding `Cc1nc(-c2nc3ccccn3c2-c2ccc3ncc(-c4nnn5c4CNCC5)cc3n2)ccc1F` [Compound 202, 2-[2-(5-fluoro-6-methyl-2-pyridyl)imidazo[1,2-a]pyridin-3-yl]-7-(4,5,6,7-tetrahydrotriazolo[1,5-a]pyrazin-3-yl)-1,5-naphthyridine], the Ki in assay [1] (read-out: ALK5 pKi (converted)) was 0.0398 to 0.316 nM. In addition, the IC50 in assay [2] (setting [3]) is 200 to 1260 nM.

In the case of `Cc1cccc(-c2n[nH]cc2-c2ccc3ncc(NCC(C)(C)N4CCN(C(C)C)CC4)cc3n2)n1` [Compound 698, N-[2-(4-isopropylpiperazin-1-yl)-2-methyl-propyl]-6-[3-(6-methyl-2-pyridyl)-1H-pyrazol-4-yl]-1,5-naphthyridin-3-amine], the Ki in assay [1] (read-out: ALK5 pKi (converted)) was 0.0398 to 0.316 nM. Further, the IC50 in assay [2] (setting [3]) was 25.1 to 158 nM.

As to `Cc1nc(-c2[nH]cnc2-c2ccc3ncc(-c4cn5c(n4)CNCC5)cc3n2)ccc1F` [Compound 91, 2-[5-(5-fluoro-6-methyl-2-pyridyl)-1H-imidazol-4-yl]-7-(5,6,7,8-tetrahydroimidazo[1,2-a]pyrazin-2-yl)-1,5-naphthyridine], in assay [1] (read-out: ALK5 pKi (converted)), the Ki is 0.0398 to 0.316 nM. For the same compound, the IC50 in assay [2] (setting [3]) is 25.1 to 158 nM.

For the compound `Cc1cccc(-c2n[nH]cc2-c2ccc3nc(C4CCCN4)c(-c4cn[nH]c4)cc3c2)n1` (centres unmarked) [Compound 291, 6-[3-(6-methyl-2-pyridyl)-1H-pyrazol-4-yl]-3-(1H-pyrazol-4-yl)-2-pyrrolidin-2-yl-quinoline], in assay [1] (read-out: ALK5 pKi (converted)), the Ki is 3.98 to 31.6 nM. In addition, the IC50 in assay [2] (setting [3]) was 1580 to 10000 nM.

Turning to `Cc1cccc(-c2[nH]cnc2-c2ccc3ncc(-c4csc(C(=O)O[C@H]5CCNC5)n4)cc3c2)n1` [Compound 1024, [(3S)-pyrrolidin-3-yl] 4-[6-[5-(6-methyl-2-pyridyl)-1H-imidazol-4-yl]-3-quinolyl]thiazole-2-carboxylate], the Ki in assay [1] (read-out: ALK5 pKi (converted)) was 0.0398 to 0.316 nM. In addition, the IC50 in assay [2] (setting [3]) was 25.1 to 158 nM.

Turning to `Cc1cccc(-c2n[nH]cc2-c2ccc3ncc(-c4nc5c(s4)CNCC5)cc3n2)n1` [Compound 175, 2-[6-[3-(6-methyl-2-pyridyl)-1H-pyrazol-4-yl]-1,5-naphthyridin-3-yl]-4,5,6,7-tetrahydrothiazolo[5,4-c]pyridine], in assay [1] (read-out: ALK5 pKi (converted)), the Ki was 0.0398 to 0.316 nM. Further, the IC50 in assay [2] (setting [3]) was 25.1 to 158 nM.

`CNCCn1cc(-c2cnc3ccc(-c4c[nH]nc4-c4cccc(C)n4)nc3c2)cn1` [Compound 487, N-methyl-2-[4-[6-[3-(6-methyl-2-pyridyl)-1H-pyrazol-4-yl]-1,5-naphthyridin-3-yl]pyrazol-1-yl]ethanamine]: the Ki in assay [1] (read-out: ALK5 pKi (converted)) is under 0.0316 nM. Further, in assay [2] (setting [3]), the IC50 was under 20 nM.

For the compound `Cc1cccc(-c2n[nH]cc2-c2ccc3ncc(N4CCN(CC(F)(F)F)CC4)cc3n2)n1` [Compound 266, 2-[3-(6-methyl-2-pyridyl)-1H-pyrazol-4-yl]-7-[4-(2,2,2-trifluoroethyl)piperazin-1-yl]-1,5-naphthyridine], the Ki in assay [1] (read-out: ALK5 pKi (converted)) was 0.0398 to 0.316 nM. In addition, the IC50 in assay [2] (setting [3]) was 25.1 to 158 nM.

Take `Cc1cccc(-c2n[nH]cc2-c2ccc3ncc(C4=C[C@H]5CC[C@@H](C4)N5)cc3n2)n1` (racemic) [Compound 161, 2-[3-(6-methyl-2-pyridyl)-1H-pyrazol-4-yl]-7-[rac-(1R,5S)-8-azabicyclo[3.2.1]oct-2-en-3-yl]-1,5-naphthyridine]: in assay [1] (ALK5 pKi), the Ki was in the range of 0.0398 to 0.316 nM. Besides, the IC50 in assay [2] (BEAS-2B) is 25.1 to 158 nM.

For `COC(=O)[C@@H]1CCCN(CCNc2cnc3ccc(-c4nc[nH]c4-c4cccc(C)n4)cc3c2)C1` [Compound 728, methyl (3R)-1-[2-[[6-[5-(6-methyl-2-pyridyl)-1H-imidazol-4-yl]-3-quinolyl]amino]ethyl]piperidine-3-carboxylate], in assay [1] (read-out: ALK5 pKi (converted)), the Ki is 0.0398 to 0.316 nM. The IC50 in assay [2] (setting [3]) is 25.1 to 158 nM.

Turning to `Cc1cccc(-c2[nH]cnc2-c2ccc3ncc(-c4ncc(C(=O)O[C@@H]5CCNC5)cn4)cc3c2)n1` [Compound 1079, [(3R)-pyrrolidin-3-yl] 2-[6-[5-(6-methyl-2-pyridyl)-1H-imidazol-4-yl]-3-quinolyl]pyrimidine-5-carboxylate], in assay [1] (read-out: ALK5 pKi (converted)), the Ki is 0.0398 to 0.316 nM. Moreover, the IC50 in assay [2] (setting [3]) was 25.1 to 158 nM.

Take `Cc1cccc(-c2[nH]cnc2-c2ccc3ncc(C(=O)OCCN)cc3c2)n1` [Compound 1040, 2-aminoethyl 6-[5-(6-methyl-2-pyridyl)-1H-imidazol-4-yl]quinoline-3-carboxylate]: the Ki in assay [1] (read-out: ALK5 pKi (converted)) was 0.398 to 3.16 nM. Moreover, the IC50 in assay [2] (setting [3]) is 25.1 to 158 nM.

On to `CCc1cccc(-c2n[nH]cc2-c2ccc3ncc(-c4ccn(CCNC)n4)cc3n2)n1` [Compound 92, 2-(3-(6-(3-(6-ethylpyridin-2-yl)-1H-pyrazol-4-yl)-1,5-naphthyridin-3-yl)-1H-pyrazol-1-yl)-N-methylethan-1-amine], for which the Ki in assay [1] (read-out: ALK5 pKi (converted)) was 0.0398 to 0.316 nM. The IC50 in assay [2] (setting [3]) was 25.1 to 158 nM.

Regarding `Cc1nc(-c2[nH]cnc2-c2ccc3ncc(-c4cnn(C5CCCNC5)c4)cc3n2)ccc1F` (centres unmarked) [Compound 413, 2-[5-(5-fluoro-6-methyl-2-pyridyl)-1H-imidazol-4-yl]-7-[1-(3-piperidyl)pyrazol-4-yl]-1,5-naphthyridine], the Ki in assay [1] (read-out: ALK5 pKi (converted)) is 0.0398 to 0.316 nM. For the same compound, the IC50 in assay [2] (setting [3]) is 25.1 to 158 nM.

`Cc1cccc(-c2[nH]cnc2-c2ccc3ncc(-c4cc(C(=O)O[C@@H]5CCNC5)ccn4)cc3c2)n1` [Compound 1087, [(3R)-pyrrolidin-3-yl] 2-[6-[5-(6-methyl-2-pyridyl)-1H-imidazol-4-yl]-3-quinolyl]pyridine-4-carboxylate]: the Ki in assay [1] (read-out: ALK5 pKi (converted)) is under 0.0316 nM. Also, in assay [2] (setting [3]), the IC50 is 25.1 to 158 nM.

For `Cc1cccc(-c2[nH]cnc2-c2ccc3nccc(C(=O)OC[C@H]4CC[C@@H](N)CC4)c3c2)n1` [Compound 1077, (4-aminocyclohexyl)methyl 6-[5-(6-methyl-2-pyridyl)-1H-imidazol-4-yl]quinoline-4-carboxylate], in assay [1] (read-out: ALK5 pKi (converted)), the Ki was 0.398 to 3.16 nM. Moreover, in assay [2] (setting [3]), the IC50 was 25.1 to 158 nM.

These data come from patent US11590116B2 (THERAVANCE BIOPHARMA R&D IP, LLC, priority 2019, dated 2023).
